According to patent US11596629B2, “Compounds and methods for treating cancer” (Mayo Foundation for Medical Education and Research, priority 2017, dated 2023):
Entries after “also recorded” stand apart in the source; their conditions may differ.

Tests used:
[1] = test system: 4T1 TNBC breast cancer cells; experiment: Tumor cell phagocytosis in vitro; type: cell-based; conditions: 4T1 cells
[2] = test system: E0771-E2 tumors; experiment: E0771-E2 tumor bearing mice, SSI-4, PD-1 blockade and combination
Procedure: The checkpoint inhibitor was administered at 100 μg/dose (5 mg/kg) by intraperitoneal (IP) injection.
(§3) To negate the effects of PD-L1 upregulation, the combination of PD-1 antibody-mediated blockade, the receptor for PD-L1, and SSI-4, was tested.
Tumor-infiltrating (TI) leukocytes and lymphocytes were assessed by multicolor flow cytometry on dissociated treated tumor tissue extracted from E0771-E2 bearing mice on day 27 of the study. […] 5G: To determine whether anti-tumor activity of SSI-4/PD-1 combination therapy is dependent on cytotoxic CD8 T lymphocyte activity, CD8 depletion studies were performed in mice receiving either placebo or combination therapy.

[3] = test system: TUBO tumors; experiment: TUBO HER2-positive tumors, SSI-4, PD-1 blockade and combination, CD8 depletion; conditions: SSI-4 monotherapy
Procedure: Materials and methods: The checkpoint inhibitor used was a mouse anti-PD-1 that was purchased from BioXCell (catalog #BE0146). The checkpoint inhibitor was administered at 100 μg/dose (5 mg/kg) by intraperitoneal (IP) injection.
as §3

[4] = test system: E0771 TNBC breast cancer cells; experiment: Tumor cell phagocytosis in vitro; type: cell-based
Procedure: (§1) CRT behaves as a pro-phagocytic signal. The effect of SSI-4 treatment on tumor cell phagocytosis by bone marrow-derived macrophages (BMDM) in vitro was determined. SSI-4 (1000 nM) induced the highest level of phagocytosis in both TUBO and E0771-E2 cells (5 and 13%, respectively) (FIG. 2a). […] Downstream activation of T lymphocytes is dependent on the successful maturation and presentation of antigen by antigen-presenting cells such as macrophages (Woo 2015). SSI-4 driven activation of BMDMs in vitro was evaluated by measuring antigen presentation of chicken ovalbumin (cOva) by MHC class I receptors on BMDM after co-culturing them with cOva-expressing tumor cells. […] CD8+ T lymphocyte activation was evaluated in vitro using splenic T cells derived from OT-I transgenic mice which recognize ovalbumin residues 257-264 in the context of H2Kb. Proliferation and interferon gamma (IFNγ) production was measured in T lymphocytes co-cultured with both cOva-expressing tumor cells and BMDM treated with SSI-4. In addition, in order to evaluate whether the effects of SSI-4 on T lymphocyte activation were direct or mediated through a tumor-specific mechanism, concurrent analysis in SSI-4 treated T lymphocytes alone and T lymphocytes co-cultured with BMDM only was performed.

[5] = test system: TUBO tumors; experiment: TUBO orthotopic mammary fat pad tumors, SSI-4 monotherapy; type: in vivo, BALB/c mice
Procedure: SSI-4 mediated immunomodulation in vivo was evaluated. TUBO cells were injected orthotopically into the mammary fat pad of BALB/c mice. Animals received either sham or SSI-4 (180 mg/kg) orally (continuous) when tumor burden reached 50-100 mm^3. […] Tumor tissue was harvested 14 days after treatment onset for analysis.
As SSI-4 treatment of tumor cells enhances the antigen presenting capabilities of APCs in vitro, tumor-associated recruitment of professional phagocytes in vivo including macrophages (MP) and dendritic cells (DC) was evaluated. The ratio of tumor leukocyte recruitment by comparing the ratio of cluster of differentiation 45 antigen (CD45) positive to negative cells sorted from dissociated tumor tissue within control and SSI-4 treated mice was determined. Results indicated a 10% increase in the number of tumor-associated leukocytes within SSI-4 treated animals (FIG. 3f). Next, tumor sections were stained for F4/80, a macrophage (MP) marker. […] To determine intra-tumor dendritic cell infiltration, tumors were dissociated and analyzed via flow cytometry for DCs based on CD45^+MHCII^+CD11c^hi expression. […] As tumor-associated macrophage (TAM) cells can be correlated with either a tumor-suppressive or pro-inflammatory phenotype, we sorted this population identified by MHCII^+CD11c^loF4/80^+ based on the polarization markers interleukin-1β (IL-1β) and IL-10, comparing the expression profiles from both treatment groups as well as mammary tissue extracted from non-tumor bearing mice.
SSI-4 mediated APC activation could augment T lymphocyte infiltration and activation. […] The maturation status of T lymphocytes from CD3+ cells isolated from the spleen of treated animals by comparing the ratio of CD44 to CD62L expression in either CD4 or CD8 T-cells was examined. […] The activation status of T lymphocytes isolated from digested tumors was also assessed. […] Granzyme B-positive CD8 T-cells were also enriched in SSI-4 treated tumors (FIG. 4f), another marker for activated CD8+ T lymphocytes.

[6] = test system: OT-I CD8 T cells; experiment: CD8+ T lymphocyte activation in vitro (proliferation, IFNγ) in co-culture with cOva-expressing tumor cells and BMDM; type: cell-based, mice; conditions: for interferon gamma (IFNγ) production in OT-I CD8 T cells / OT-I CD8 T cell proliferation: SSI-4 1000 nM
Procedure: as §1

[7] = test system: TUBO, E0771-E2, and N202 tumor cells; experiment: ER stress activation in tumor cells (p-eIF2α Ser51, CHOP levels); type: cell-based, murine; conditions: SSI-4 10-1000 nM
Source text: (§2) SSI-4 induces ER stress in tumor cells. […] ER stress can provoke a therapeutically relevant adaptive immune response against malignant cells through the emission of immunostimulatory signals, or damage-associated molecular patterns (DAMPs) such as heat shock proteins and translocation of calreticulin (CRT) to the plasma membrane (17). In particular, phosphorylation of eIF2a has been reported to mediate CRT translocation (20) which is correlated with the induction of immunogenic cell death (ICD) and favorable disease outcome in a variety of malignancies (17).

[8] = test system: live tumor cells (HER2-positive and TNBC breast cancer); experiment: Plasma membrane translocation of calreticulin, flow cytometry on live tumor cells; type: cell-based, murine; conditions: 48 hour treatment
Procedure: Significance shown for 1000 nM dose (anova).
as §2

[9] = test system: TUBO cells; experiment: Tumor cell phagocytosis by bone marrow-derived macrophages (BMDM) in vitro; type: cell-based, murine
Procedure: as §1

[10] = test system: E0771-E2 cells; experiment: as above; type: cell-based, murine
Procedure: as §1

[11] = test system: TUBO cells; experiment: Antigen presentation of cOva by MHC class I on BMDM co-cultured with cOva-expressing tumor cells; type: cell-based, murine
Procedure: as §1

[12] = test system: E0771-E2 cells; experiment: as above; type: cell-based, murine
Procedure: as §1

[13] = test system: OT-II CD4 T cells; experiment: OT-II CD4 T cell proliferation in co-culture; type: cell-based; conditions: for OT-II CD4 T cell proliferation: SSI-4 1000 nM
[14] = splenic CD3+ cells, CD44 to CD62L
[15] = tumor tissue 14 days after treatment onset
[16] = SSI-4 treated T lymphocytes alone or T lymphocyte-BMDM co-cultures

CNC(=O)c1ccnc(NC(=O)N2CCC(Oc3ccccc3Cl)CC2)c1 [SSI-4, 2-{[4-(2-Chlorophenoxy)piperidine-1-carbonyl]amino}-N-methylpyridine-4-carboxamide]
SSI-4 induced phagocytosis with adjuvant CRT neutralization [1]: reversed | level of phagocytosis ([1]; SSI-4 1000 nM): 12.5% | programmed death ligand-1 (PD-L1) expression in tumor ([2]; EO771-E2 tumor bearing mice): induces | protein expression of PD-L1 in tumor-infiltrating dendritic and macrophage cells ([2]; FIG. 25): significant changes | improved median survival compared to PD-1 monotherapy ([2]; SSI-4 monotherapy): ~20% | improved median survival compared to sham ([2]; SSI-4 monotherapy): approximately 22% | effector/cytotoxic CD8+ T lymphocytes in tumor ([2]; dissociated tumors): increased; also recorded: significant increase | increase of intratumor infiltration of macrophages ([2]; flow cytometry, day 27): approximately 8% | protein expression of checkpoints PD-L1 or PD-L2 in dendritic cells ([2]; intratumor dendritic cells): No significant changes | PD-L1 expression on macrophages ([2]; intratumor macrophages): increased PD-L1; also recorded: strongly induce PD-L1 expression on macrophages | intratumor population of T regulatory cells ([2]; mouse, in vivo): deleterious effect | tumor infiltrating macrophages ([2]; mouse, in vivo): increased the number of tumor infiltrating macrophages; also recorded: significant influx | checkpoint protein expression (CTLA-4, TIM3) on CD4 and CD8 positive T lymphocytes ([2]; tumor-infiltrating T lymphocytes): upregulation of both CTLA-4 and TIM-3 | improved median survival compared to PD-1 monotherapy [3]: ~35% | improved median survival compared to sham [3]: approximately 37% | SSI-4 induced phagocytosis with adjuvant CRT neutralization [4]: reversed | level of phagocytosis ([4]; SSI-4 1000 nM): 9.4% | number of CD4+ tumor-infiltrating populations ([5]; IHC of tumor sections): significant increase | number of CD8+ tumor-infiltrating populations ([5]; IHC of tumor sections): significant increase | programmed death ligand-1 (PD-L1) expression in tumor ([5]; IHC of tumor sections, TUBO tumor bearing mice): induces | pro-inflammatory cytokine (IL-1β) expression in tumor-associated macrophages ([5]; MHCII+CD11cloF4/80+ cells): increased expression of pro-inflammatory cytokines; also recorded: significant increase in IL-1β | overall survival ([5]; SSI-4 180 mg/kg orally (continuous) vs sham): appreciable increase in overall survival | tumor progression ([5]; SSI-4 180 mg/kg orally (continuous) vs sham, 180 mg/kg): slower tumor progression; also recorded: tumor progression invariably occurred | tumor sizes at 30 days after onset of therapy ([5]; SSI-4 180 mg/kg orally (continuous), when control animals reached endpoint): markedly smaller tumor sizes | effector CD4 and CD8 T lymphocytes identified by IFNγ ([5]; T lymphocytes from digested tumors): markedly increased | increase in the number of tumor-associated leukocytes (CD45) ([5]; dissociated tumor tissue, SSI-4 vs control): 10% | number of intra-tumor dendritic cells ([5]; flow cytometry CD45+MHCII+CD11chi, vs control treated tumors and normal mammary tissue): significant increase | perforin in tumors ([5]; mouse, in vivo): significant increase in perforin | naïve T-cell numbers ([5]; spleen): concomitant decrease | memory and effector T-cells among CD4 positive T cell populations [5, 14]: robust induction | memory and effector T-cells among CD8 positive T cell populations [5, 14]: robust induction | intra-tumor penetration of macrophages (F4/80) ([5]; tumor sections): increased intra-tumor penetration | macrophages, positive F4/80 IHC staining ([5]; tumor sections): 43.3±8.6 % pop. | Ki-67 protein staining ([5]; tumor sections, sham 47.7±6.4): 36.7±6.2 %+nuclei | cleaved caspase 3 (CC3) staining, H ([5]; tumor sections, sham H=4.9±2.6): 10.7±3.9 | cleaved caspase 3 (CC3) staining [5, 15]: significant increase | proliferative capacity of tumors via nuclear Ki67 staining [5, 15]: significant reduction in the proliferative capacity | Granzyme B-positive CD8 T-cells ([5]; tumors): enriched | number of intra-tumor T regulatory cells (dual CD25 and FoxP3 expression) ([5]; tumors): significantly reduced; also recorded: profound decrease | SSI-4 enhanced IFNγ production with CRT neutralization ([6]; E0771-E2 cells): mild (n.s.) decrease | SSI-4 enhanced OT-I CD8 T cell proliferation with adjuvant CRT neutralization ([6]; E0771-E2 cells): inhibited | SSI-4 enhanced IFNγ production with adjuvant CRT neutralization ([6]; MMTV-neu cells): inhibited; also recorded: abrogate | SSI-4 enhanced OT-I CD8 T cell proliferation with adjuvant CRT neutralization ([6]; MMTV-neu cells): inhibited; also recorded: abrogate | interferon gamma (IFNγ) production in OT-I CD8 T cells ([6]; triple culture with E0771-E2): significantly enhanced; also recorded: potently induce | OT-I CD8 T cell proliferation ([6]; triple culture with E0771-E2 tumor cells and macrophages): significantly enhanced; also recorded: potently induce | interferon gamma (IFNγ) production in OT-I CD8 T cells ([6]; triple culture with MMTV-neu): significantly enhanced; also recorded: potently induce | OT-I CD8 T cell proliferation ([6]; triple culture with MMTV-neu tumor cells and macrophages): significantly enhanced; also recorded: potently induce | IFNγ production without tumor cells [6, 16]: No significant changes | T lymphocyte proliferation without tumor cells [6, 16]: could not induce T cell proliferation; also recorded: No significant changes | T cell proliferation with tumor cells bearing empty vector (EV), no cOVA antigen ([6]; SSI-4 treatment): could not similarly stimulate T cell proliferation | activation of ER stress (phosphorylated eIF2α at serine51 and CHOP levels) [7]: activation of ER stress | plasma membrane translocation/expression of calreticulin (CRT) ([8]; 10 nM, flow cytometry on live tumor cells): induces plasma membrane translocation of calreticulin; also recorded: potently upregulates plasma membrane expression of CRT | plasma membrane translocation of calreticulin ([8]; 10-1000 nM, HER2-positive and TNBC breast cancer cells, significance shown for 1000 nM): induces plasma membrane translocation of calreticulin | SSI-4 induced phagocytosis with adjuvant CRT neutralization ([9]; CRT blocking antibody): reversed; also recorded: significantly abrogate | level of phagocytosis ([9]; SSI-4 1000 nM): 5% | SSI-4 induced phagocytosis with adjuvant CRT neutralization ([10]; CRT blocking antibody): reversed; also recorded: significantly abrogate | level of phagocytosis ([10]; SSI-4 1000 nM): 13% | SSI-4 enhanced antigen presentation with adjuvant CRT neutralization [11]: inhibited | antigen presentation ([11]; SSI-4 100 nM): 8.5% | antigen presentation ([11]; SSI-4 1000 nM): 8.5% | SSI-4 enhanced antigen presentation with adjuvant CRT neutralization [12]: inhibited | antigen presentation ([12]; SSI-4 100 nM): 5% | antigen presentation ([12]; SSI-4 1000 nM): 5% | SSI-4 enhanced OT-II CD4 T cell proliferation with adjuvant CRT neutralization ([13]; E0771-E2): inhibited | SSI-4 enhanced OT-II CD4 T cell proliferation with adjuvant CRT neutralization ([13]; MMTV-neu): inhibited | OT-II CD4 T cell proliferation ([13]; E0771-E2): significantly enhanced | OT-II CD4 T cell proliferation ([13]; MMTV-neu): significantly enhanced
